Data taken from patent US20240368151A1, “NOVEL ERGOLINES AND METHODS OF TREATING MOOD DISORDERS” (priority 2021, published 2024).

How the values were obtained:
5-HT2A receptor [1] = target: T1, 5-HT2A receptor (Homo sapiens (Human), UniProt P28223); type: cell-based; details: Ca^2+ flux, HEK293
Summary of the method: (§1)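 Agonist-induced calcium flux was measured on FLIPR Tetra in stable HEK293 cells for 5-HT2A and 5-HT2B, and in stable CHO cells for 5-HT1A. Cells were loaded with Fluo-4 Direct dye and 2.5 mM probenecid for 50 min at 37 °C before compound addition and fluorescence reading.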

5-HT2B receptor = 5-HT2B receptor (Homo sapiens (Human), UniProt P41595); test: FLIPR Ca^2+ flux agonist assay at 5-HT2B; type: cell-based; details: HEK293
5-HT2B receptor, sequence (P41595 whole entry, looked up): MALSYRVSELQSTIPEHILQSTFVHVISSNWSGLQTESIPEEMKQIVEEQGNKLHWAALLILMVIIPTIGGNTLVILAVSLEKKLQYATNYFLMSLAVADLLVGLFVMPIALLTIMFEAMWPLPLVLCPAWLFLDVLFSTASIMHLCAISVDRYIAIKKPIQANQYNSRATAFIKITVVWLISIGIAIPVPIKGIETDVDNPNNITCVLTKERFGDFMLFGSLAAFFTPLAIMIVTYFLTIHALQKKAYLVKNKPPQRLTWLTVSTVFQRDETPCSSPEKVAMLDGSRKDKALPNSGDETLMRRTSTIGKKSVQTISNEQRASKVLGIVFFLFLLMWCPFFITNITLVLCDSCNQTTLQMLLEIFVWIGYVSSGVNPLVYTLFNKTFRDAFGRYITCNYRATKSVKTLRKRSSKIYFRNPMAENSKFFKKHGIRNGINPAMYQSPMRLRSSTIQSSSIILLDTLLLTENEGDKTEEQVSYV
Summary of the method: as §1

5-HT1A receptor = 5-HT1A receptor (Homo sapiens (Human), UniProt P08908); test: FLIPR Ca^2+ flux agonist assay at 5-HT1A; type: cell-based; details: CHO cells
5-HT1B receptor = 5-HT1B receptor (Homo sapiens (Human), UniProt P28222); test: cAMP accumulation agonist assay at 5-HT1B; type: cell-based
5-HT1B receptor, sequence (P28222 whole entry, looked up): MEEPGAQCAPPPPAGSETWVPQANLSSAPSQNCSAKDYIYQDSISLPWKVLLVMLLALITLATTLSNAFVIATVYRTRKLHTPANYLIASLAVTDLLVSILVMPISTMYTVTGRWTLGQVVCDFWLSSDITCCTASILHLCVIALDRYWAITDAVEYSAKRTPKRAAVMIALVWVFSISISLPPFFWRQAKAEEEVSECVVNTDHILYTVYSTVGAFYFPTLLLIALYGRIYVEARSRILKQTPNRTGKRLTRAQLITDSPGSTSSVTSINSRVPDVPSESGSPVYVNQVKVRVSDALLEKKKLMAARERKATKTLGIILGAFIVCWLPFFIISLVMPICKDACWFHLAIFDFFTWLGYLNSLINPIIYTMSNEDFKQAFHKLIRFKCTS
Method: Functional Assay at 5-HT1B. Agonist activity at 5-HT1B was determined using a cAMP accumulation protocol at WuXi AppTec (Hong Kong) Limited according to their standard protocols. Briefly, stably transfected cells were plated in an OptiPlate-384 well plate, incubated at RT for 60 mins, and cAMP standard solution (800 nM, 10 μL) was added to the blank well. Then, 10 μL detection reagent was added to each well, the plate incubated for 60 mins at RT, and the plate read using EnVision.

5-HT2A receptor [2] = target: T1, 5-HT2A receptor; type: cell-based; details: beta-arrestin recruitment
Method: The degree of arrestin bias varied substantially across the other compounds tested as well.
Arrestin Functional Assay at 5-HT2A. Recruitment of beta-arrestin was determined using a PathHunter assay at Eurofins DiscoverX (Fremont, CA) according to their standard protocols. PathHunter GPCR beta-arrestin assays take advantage of DiscoverX's proprietary Enzyme Fragment Complementation technology. The GPCR is fused in frame with a small enzyme donor fragment ProLink™ (PK) and co-expressed in cells stably expressing a fusion protein of beta-arrestin and the larger, N-terminal deletion mutant of beta-galactosidase. Activation of the GPCR (5-HT2A receptor in this case) stimulates binding of beta-arrestin to the PK-tagged GPCR and forces complementation of the two enzyme fragments, resulting in the formation of an active beta-galactosidase enzyme. This interaction leads to an increase in enzyme activity that can be measured using chemiluminescent PathHunter Detection Reagents. Briefly, PathHunter cells expressing 5-HT2A receptors were seeded in a volume of 20 μL into 384-well plates and incubated at 37° C. for the appropriate time prior to testing. […] Plates were then imaged on a microplate reader and the agonist activity was calculated using the following formula: % Activity=100%×(mean RLU of test sample−mean RLU of vehicle control)/(mean MAX control ligand−mean RLU of vehicle control), where RLU=relative light units.

Alpha1A receptor = Alpha1A receptor (Homo sapiens (Human), UniProt P35348); test: FLIPR Ca^2+ flux agonist assay at Alpha1A; type: cell-based
Alpha1A receptor, sequence (P35348 whole entry, looked up): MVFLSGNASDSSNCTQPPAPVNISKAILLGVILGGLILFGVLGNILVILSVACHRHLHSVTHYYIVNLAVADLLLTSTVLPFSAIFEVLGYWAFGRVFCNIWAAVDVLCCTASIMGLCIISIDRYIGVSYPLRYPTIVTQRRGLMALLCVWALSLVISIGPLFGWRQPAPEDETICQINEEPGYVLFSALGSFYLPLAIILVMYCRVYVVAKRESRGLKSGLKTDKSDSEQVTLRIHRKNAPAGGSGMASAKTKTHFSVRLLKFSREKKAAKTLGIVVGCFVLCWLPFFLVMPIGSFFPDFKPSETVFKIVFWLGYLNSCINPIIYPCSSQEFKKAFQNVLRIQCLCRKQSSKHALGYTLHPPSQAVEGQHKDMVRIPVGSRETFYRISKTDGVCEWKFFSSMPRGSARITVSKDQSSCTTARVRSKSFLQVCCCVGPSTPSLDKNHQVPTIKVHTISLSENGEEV
Method: Disclosed compounds were tested for agonist activity at several adrenergic (Alpha1A and Alpha2A) and dopamine (D1 and D2) receptor subtypes using Ca^2+ flux functional assays, with the results summarized in Table 6. Selectivity for the 5-HT2A receptor over these other targets varied depending on the specific target and compound.
(§2) Functional Assays at Adrenergic and Dopamine Receptors. Agonist activity at Alpha1A, Alpha2A, D1, and D2 receptors was determined using a FLIPR Ca^2+ flux assay at WuXi AppTec (Hong Kong) Limited according to their standard protocols. Briefly, stably transfected cells expressing the receptor of interest were grown and plated in a 384 well plate and incubated at 37° C. and 5% CO2 overnight. A solution of 250 mM probenecid in 1 mL FLIPR assay buffer was prepared fresh. This was combined with a fluorescent dye (Fluo-4 Direct™) to make a final assay concentration of 2.5 mM. Compounds were diluted 1:3.16 for 10 points and 750 nL was added to a 384 well compound plate using ECHO along with 30 μL assay buffer. The fluorescent dye was then added to the assay plate along with assay buffer to a final volume of 40 μL. The cell plate was incubated for 50 min at 37° C. and 5% CO2 and placed into the FLIPR Tetra along with the compound plate. 10 μL of references and compounds were then transferred from the compound plate into the cell plate and the fluorescent signal was read.

D1 receptor = D1 receptor (Homo sapiens (Human), UniProt P21728); test: FLIPR Ca^2+ flux agonist assay at D1; type: cell-based
D1 receptor, sequence (P21728 whole entry, looked up): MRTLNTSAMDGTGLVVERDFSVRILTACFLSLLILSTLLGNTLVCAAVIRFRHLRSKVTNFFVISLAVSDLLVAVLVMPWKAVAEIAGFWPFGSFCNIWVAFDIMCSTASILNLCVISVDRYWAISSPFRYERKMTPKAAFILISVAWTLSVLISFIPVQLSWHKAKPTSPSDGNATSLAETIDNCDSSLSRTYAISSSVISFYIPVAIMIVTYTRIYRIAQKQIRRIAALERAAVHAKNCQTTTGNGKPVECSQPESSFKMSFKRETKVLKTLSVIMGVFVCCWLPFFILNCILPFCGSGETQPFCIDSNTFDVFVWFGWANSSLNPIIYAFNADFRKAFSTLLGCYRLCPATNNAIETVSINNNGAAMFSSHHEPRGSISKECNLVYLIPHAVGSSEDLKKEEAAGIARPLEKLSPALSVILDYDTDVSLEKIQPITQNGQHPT
Method: as §2, with “Compounds were diluted 1:3.16 for 10 points and 750 nL was added to a 384 well compound plate using ECHO along with 30 μL assay buffer.” left out

D2 receptor = D2 receptor (Homo sapiens (Human), UniProt P14416); test: FLIPR Ca^2+ flux agonist assay at D2; type: cell-based
D2 receptor, sequence (P14416 whole entry, looked up): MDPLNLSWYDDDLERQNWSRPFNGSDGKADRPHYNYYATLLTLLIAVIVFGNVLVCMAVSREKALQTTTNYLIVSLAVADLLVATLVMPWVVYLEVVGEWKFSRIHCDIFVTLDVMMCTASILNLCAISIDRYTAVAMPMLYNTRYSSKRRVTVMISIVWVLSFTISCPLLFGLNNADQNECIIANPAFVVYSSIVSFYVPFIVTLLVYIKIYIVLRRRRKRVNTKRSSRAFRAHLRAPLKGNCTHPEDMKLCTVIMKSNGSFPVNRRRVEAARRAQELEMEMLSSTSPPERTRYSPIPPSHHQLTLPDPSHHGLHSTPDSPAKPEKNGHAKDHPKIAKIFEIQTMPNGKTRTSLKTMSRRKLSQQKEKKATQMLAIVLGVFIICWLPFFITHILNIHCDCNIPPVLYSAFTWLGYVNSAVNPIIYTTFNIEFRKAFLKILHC
Method: as §2, with “Compounds were diluted 1:3.16 for 10 points and 750 nL was added to a 384 well compound plate using ECHO along with 30 μL assay buffer.” left out

[3] = Metabolic stability in human liver microsomes (HLM); type: in vitro ADME; details: both sexes, human, pooled human liver microsomes, pH 7.4, NADPH
From the text: HLM Stability. Pooled HLM from adult male and female donors (Corning 452117) were used.

[4] = Metabolic stability in mouse liver microsomes (MLM); type: in vitro ADME; details: mouse, pooled mouse liver microsomes, pH 7.4, MLM (CD-1), NADPH
From the text: MLM Stability Pooled MLM from CD-1 mice (BIOIVT M00501) were used.

[5] = Metabolic stability in rat liver microsomes (RLM); type: in vitro ADME; details: both sexes, rat, pooled rat liver microsomes, pH 7.4, NADPH

CCN(CC)C(=O)[C@@H]1C=C2c3cccc4[nH]cc(c34)C[C@H]2N(C)C1 [LSD, lysergic acid diethylamide, reference compound]
5-HT2A % Act @ Max Dose (5-HT2A receptor [1]): 107.7%
5-HT2B % Act @ Max Dose (5-HT2B receptor): 19.26%
5-HT1A % Act @ Max Dose (5-HT1A receptor): 91.39%
5-HT1B % Act @ Max Dose (5-HT1B receptor): 98.03%
5-HT2A Arrestin % Act @ Max Dose (5-HT2A receptor [2]): 52.646%
agonist type in the 5-HT2A arrestin recruitment assay, in words (5-HT2A receptor [2]): partial agonists
Alpha 1A % Act @ Max Dose (Alpha1A receptor): 60.3%
D1 % Act @ Max Dose (D1 receptor): 94.9%
D2 % Act @ Max Dose (D2 receptor): 78.33%
half-life at 1 μM [3]: 1.19 h
half-life at 1 μM [4]: 0.522 h
half-life at 1 μM [5]: 1 h
